The source of these data is patent publication US20040091527A1, “Method of increasing the bioavailability and tissue penetration of azithromycin” (Pfizer Inc, priority 2000, published 2004).

The conditions of data set [1]: cited from earlier work.
For data set [2] the following is noted: in vivo; cited from earlier work.
For data set [3] the following is noted: dog, intravenous radiolabeled dose; cited from earlier work.
For data set [4] the following is noted: humans, no p-gp inhibitor; cited from earlier work.
The nature of the next data set: clinical. To be noted: human, serum, po, 1200 mg.
Data set [5] relates to CACO-2 (colon carcinoma) cells. To be noted: cultured CACO-2 cells; cited from earlier work.
Data set [6] can be described thus: Effect of nelfinavir on the pharmacokinetics of a single oral dose of azithromycin (crossover study). To be noted: co-administration with nelfinavir vs azithromycin alone.
Method: (§1) Healthy volunteers received nelfinavir for 11 days. On Day 9 a single dose of azithromycin was administered. Each subject also received a single control dose of 1200 mg azithromycin either two weeks before the start of a nelfinavir treatment regimen or three weeks after a nelfinavir treatment regimen.
(§2) Nelfinavir was administered as 3 commercial 250 mg tablets, 3 times per day (morning dose at approximately 7 am; afternoon dose at approximately 3 pm; evening dose at approximately 10 pm) with food for 11 days. On day 9, azithromycin (1200 mg) was dosed as 2 600 mg commercial tablets at the same time as the morning dose of nelfinavir. On day 9 the subjects, who were previously fasted for at least 8 hr, consumed a standard breakfast consisting of cereal and/or toast with butter and jelly, and milk. Immediately following the standard breakfast, the subjects consumed 750 mg nelfinavir and 1200 mg azithromycin, with 120 ml water. On the day on which azithromycin alone was dosed, 2 600 mg commercial tablets were dosed with 120 ml water, immediately following the standard breakfast.
(§3) Serum samples were assayed for azithromycin utilizing LC/MS/MS. […] Concentrations below the lower limits of quantification were utilized as 0.00 μg/ml in the calculations.
(§4) Maximum observed azithromycin concentrations (Cmax) were determined by inspection of the data. Tmax was defined as the time of first occurrence of Cmax. […] Area under the serum concentration versus time curves (AUClast) were calculated for the interval of pre-dose to the last time at which concentrations of azithromycin were measurable. Total exposure was estimated as AUC for the interval of pre-dose to infinity. AUC=AUClast+C*last/kei, where C*last is the concentration estimated from the aforementioned regression at the time of the last quantifiable concentration of drug.
(§5) Geometric mean values of Cmax, AUC, Cmax ratios, and AUC ratios were determined. Arithmetic means of other parameters were determined.
The conditions of data set [7]: in vivo; cited from earlier work. This is another data set of the same source.
A further data set deals with Caco-2 cell monolayers. As to the kind of experiment: Azithromycin transport across Caco-2 cell monolayers, with and without P-glycoprotein inhibitors. It counts as in vitro ADME. As to the method:
Caco-2 cell monolayers were grown on permeable transwell-col filter supports (24.5 mm diameter, 0.45 μm pore size) and used in these studies at day 21-24. 2 mls of 0.4 μM ^14C Azithromycin in Hank's balanced salt solution (HBSS) was added to the donor chamber and 2 mls of HBSS was added to the acceptor chamber. An impermeable marker, ^3H Mannitol, was included in these studies to ensure the monolayers were intact. […] Transport was monitored in the apical to basolateral (absorptive) and basolateral to apical (secretory) direction. The wells were incubated for 1 hour (unstirred) at 37° C. Samples were removed after the incubation period and analyzed by dual label LSC. The transport was calculated as percent flux/hr. [formula]
Transport measurements were made in controls, implemented in like fashion except no test compound was included.

“Also recorded” adds a separate entry of the source.

Method for clinical: as §1, §2, §3, §4, §5

The term AUC(0-inf) denotes total exposure, with the tail of the curve extrapolated. A high value points to high exposure. What is called Cmax is the peak of the concentration-time curve. On to `CC[C@H]1OC(=O)[C@H](C)[C@@H](O[C@H]2C[C@@](C)(OC)[C@@H](O)[C@H](C)O2)[C@H](C)[C@@H](O[C@@H]2O[C@H](C)C[C@H](N(C)C)[C@H]2O)[C@](C)(O)C[C@@H](C)CN(C)[C@H](C)[C@@H](O)[C@]1(C)O` [Azithromycin, 9a-aza-9a-methyl-9deoxo-9a-homoerythromycin A], for which the “effect on midazolam plasma levels” value in data set [1] (co-dosed with midazolam (Zimmerman et al.; Backman et al.)) was “no effect; also recorded: did not increase”. The “interaction with (effect on plasma levels of) HIV protease inhibitors saquinavir, ritonavir, indinavir, nelfinavir” value in data set [2] is “does not interact”. For the same compound, in data set [3], the “recovered radiolabel eliminated across the intestinal wall” value is recorded as 40%. For the same compound, the oral bioavailability in data set [4] is recorded as 37%. In “clinical”, this compound showed an AUC(0-inf) of 11500 ng·h/mL and a Cmax of 889 ng/mL. Also, the “basolateral-to-apical azithromycin flux versus apical-to-basolateral flux” value in data set [5] was “exceeded”. In addition, the “increase of mean AUC0-∞ for azithromycin” value in [6] (p=0.0001) stood at 112%. Further, in data set [6] (p=0.0003), the “increase of mean Cmax” value came to 137%. The elimination half-life in data set [7] is 69 h. For the same compound, the “substrate for the P-glycoprotein efflux transporter” value in the data set with Caco-2 cell monolayers (Caco-2) was “is a substrate”. Moreover, in the data set with Caco-2 cell monolayers (human, Caco-2, 1 h, 0.4 μM), the “% Flux/hr B-A” value came out at 6.6 % flux/hr and the “% flux/hr A-B” value amounted to 0.1 % flux/hr.

Take `CC[C@H]1OC(=O)[C@H](C)[C@@H](O[C@H]2C[C@@](C)(OC)[C@@H](O)[C@H](C)O2)[C@H](C)[C@@H](O[C@@H]2O[C@H](C)C[C@H](N(C)C)[C@H]2O)[C@](C)(OC)C[C@@H](C)C(=O)[C@H](C)[C@@H](O)[C@]1(C)O` [clarithromycin]: the “interaction with (effect on plasma levels of) HIV protease inhibitors saquinavir, ritonavir, indinavir, nelfinavir” value in data set [2] is “exhibit an interaction with all but nelfinavir”.

Take `CC[C@H]1OC(=O)[C@H](C)[C@@H](O[C@H]2C[C@@](C)(OC)[C@@H](O)[C@H](C)O2)[C@H](C)[C@@H](O[C@@H]2O[C@H](C)C[C@H](N(C)C)[C@H]2O)[C@](C)(O)C[C@@H](C)C(=O)[C@H](C)[C@@H](O)[C@]1(C)O` [erythromycin]: in data set [1] (midazolam co-dosed with erythromycin (Zimmerman et al.)), the “increase in midazolam AUC” value is 380%.
